Patent US20100267561A1, “HERBICIDAL PYRIDAZINONE DERIVATIVES” (priority 2007, published 2010)

Legend:
Type in all cases: in vivo
[1] = tested on: pigweed (Amaranthus retroflexus); assay: Test A pre-/postemergence plant response
Outline: (§1)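 Both pre- and postemergence treatment given concurrently; postemergence seedlings measured 2–10 cm at the one- to two-leaf stage. Visual injury, 0–100 scale versus untreated, at ~10 days.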

[2] = tested on: large crabgrass (Digitaria sanguinalis); assay: Test A pre-/postemergence plant response
Outline: as §1

[3] = tested on: corn (Zea mays); assay: Test A pre-/postemergence plant response
Outline: as §1

[4] = tested on: giant foxtail (Setaria faberi); assay: Test A pre-/postemergence plant response
Outline: as §1

[5] = tested on: barnyardgrass (Echinochloa crus-galli); assay: Test A pre-/postemergence plant response
Outline: as §1

[6] = tested on: wheat (Triticum aestivum); assay: Test A pre-/postemergence plant response
Outline: as §1

[7] = tested on: winter barley (Hordeum vulgare); assay: Test B postemergence plant response; details: for Barley plant response rating: 8 g ai/ha, postemergence, 0-100 scale; for Plant response rating, Barley: Postemergence, scale 0 to 100, 0 no effect, 100 complete control
Method: (§2) At the same time, plants selected from these crop and weed species and also winter barley (Hordeum vulgare), canarygrass (Phalaris minor), chickweed (Stellaria media) and windgrass (Apera spica-venti) were treated with postemergence applications of some of the test chemicals formulated in the same manner. Plants ranged in height from 2 to 18 cm (1- to 4-leaf stage) for postemergence treatments.
(§3) Plant species in the flooded paddy test consisted of rice (Oryza sativa), umbrella sedge (Cyperus difformis), ducksalad (Heteranthera limosa) and barnyardgrass (Echinochloa crus-galli) grown to the 2-leaf stage for testing. At time of treatment, test pots were flooded to 3 cm above the soil surface, treated by application of test compounds directly to the paddy water, and then maintained at that water depth for the duration of the test. Treated plants and controls were maintained in a greenhouse for 13 to 15 days, after which time all species were compared to controls and visually evaluated. Plant response ratings, summarized in Table B, are based on a scale of 0 to 100 where 0 is no effect and 100 is complete control. A dash (-) response means no test result.

[8] = tested on: chickweed (Stellaria media); assay: Test B postemergence plant response; details: for Chickweed plant response rating: 8 g ai/ha, postemergence, 0-100 scale; for Plant response rating, Chickweed: Postemergence
Method: as §2, §3

[9] = tested on: windgrass (Apera spica-venti); assay: Test B postemergence plant response; details: for Windgrass plant response rating: postemergence, 0-100 scale; for Plant response rating, Windgrass: Postemergence
Method: as §2, §3

[10] = tested on: canarygrass (Phalaris minor); assay: Test B postemergence plant response; details: for Plant response rating, Canarygrass: Postemergence; for Canarygrass plant response rating: 8 g ai/ha, postemergence, 0-100 scale
Method: as §2, §3

[11] = Postemergence, 31 g ai/ha, 0 to 100 scale, 0 no effect, 100 complete control
[12] = Postemergence, 125 g ai/ha, 0 to 100 scale, 0 no effect, 100 complete control
[13] = Preemergence, 31 g ai/ha, 0 to 100 scale, 0 is no effect, 100 is complete control
[14] = Preemergence, 125 g ai/ha, 0 to 100 scale (0 no effect, 100 complete control)
[15] = 62 g ai/ha, scale 0 to 100, 0 no effect, 100 complete control

| SMILES | Plant response rating, Pigweed [1, 11] | Plant response rating, Pigweed [1, 12] | Plant response rating, Pigweed [1, 13] | Plant response rating, Pigweed [1, 14] | Plant response rating, Crabgrass, Large [2, 11] | Plant response rating, Crabgrass, Large [2, 12] | Plant response rating, Crabgrass, Large [2, 13] | Plant response rating, Crabgrass, Large [2, 14] | Plant response rating, Corn [3, 11] | Plant response rating, Corn [3, 12] | Plant response rating, Corn [3, 14] | Plant response rating, Foxtail, Giant [4, 11] | Plant response rating, Foxtail, Giant [4, 12] | Plant response rating, Foxtail, Giant [4, 13] | Plant response rating, Foxtail, Giant [4, 14] | Plant response rating, Barnyardgrass [5, 11] | Plant response rating, Barnyardgrass [5, 12] | Plant response rating, Barnyardgrass [5, 13] | Plant response rating, Barnyardgrass [5, 14] | Plant response rating, Wheat [6, 11] | other results |
| --- | --- | --- | --- | --- | --- | --- | --- | --- | --- | --- | --- | --- | --- | --- | --- | --- | --- | --- | --- | --- | --- |
| CCCc1cc(-c2ccc(C(F)(F)F)cc2)nn1-c1c(O)cnn(C)c1=O [Compound 72] | 0 | 0 | 0 | 0 | 20 | 90 | 0 | 60 | 80 | 100 | 50 | 90 | 100 | 70 | 90 | 50 | 100 | 20 | 90 | 60 | Plant response rating, Corn [3, 13]: 20; Plant response rating, Wheat [6, 12]: 90; Plant response rating, Wheat [6, 13]: 50; Plant response rating, Wheat [6, 14]: 80; Barley plant response rating [7]: 0; Plant response rating, Barley ([7]; 16 g ai/ha): 0; Plant response rating, Barley ([7]; 31 g ai/ha): 0; Plant response rating, Barley ([7]; 62 g ai/ha): 95; Chickweed plant response rating [8]: 0; Plant response rating, Chickweed ([8]; 16 g ai/ha, scale 0 to 100): 0; Plant response rating, Chickweed ([8]; 31 g ai/ha, scale 0 to 100): 0; Plant response rating, Chickweed [8, 15]: 0; Windgrass plant response rating ([9]; 8 g ai/ha): 85; Windgrass plant response rating ([9]; 16 g ai/ha): 100; Plant response rating, Windgrass ([9]; 31 g ai/ha, scale 0 to 100): 100; Plant response rating, Windgrass [9, 15]: 100; Plant response rating, Canarygrass ([10]; 16 g ai/ha, scale 0 to 100): 30; Plant response rating, Canarygrass ([10]; 31 g ai/ha, scale 0 to 100): 30; Plant response rating, Canarygrass [10, 15]: 95 |
| CCc1cc(-c2ccc(Br)cc2)nn1-c1c(O)cnn(CC(F)(F)F)c1=O [Compound 73] | 10 | 10 | 0 | 0 | 40 | 100 | 0 | 50 | 90 | 100 | 20 | 50 | 100 | 0 | 30 | 60 | 100 | 0 | 10 | 40 | Plant response rating, Corn [3, 13]: 0; Plant response rating, Wheat [6, 12]: 70; Plant response rating, Wheat [6, 13]: 20; Plant response rating, Wheat [6, 14]: 70; Barley plant response rating [7]: 0; Plant response rating, Barley ([7]; 16 g ai/ha): 40; Plant response rating, Barley ([7]; 31 g ai/ha): 40; Plant response rating, Barley ([7]; 62 g ai/ha): 70; Chickweed plant response rating [8]: 0; Plant response rating, Chickweed ([8]; 16 g ai/ha, scale 0 to 100): 0; Plant response rating, Chickweed ([8]; 31 g ai/ha, scale 0 to 100): 0; Plant response rating, Chickweed [8, 15]: 0; Windgrass plant response rating ([9]; 8 g ai/ha): 50; Windgrass plant response rating ([9]; 16 g ai/ha): 60; Plant response rating, Windgrass ([9]; 31 g ai/ha, scale 0 to 100): 80; Plant response rating, Windgrass [9, 15]: 95; Canarygrass plant response rating [10]: 30; Plant response rating, Canarygrass ([10]; 16 g ai/ha, scale 0 to 100): 90; Plant response rating, Canarygrass ([10]; 31 g ai/ha, scale 0 to 100): 90; Plant response rating, Canarygrass [10, 15]: 100 |
| CCc1cc(-c2ccc(Br)cc2)nn1-c1c(O)c(C)nn(C)c1=O [Compound 74] | 0 | 0 | 0 | 0 | 60 | 100 | 50 | 90 | 60 | 100 | 60 | 70 | 100 | 90 | 100 | 100 | 100 | 100 | 100 | 70 | Plant response rating, Wheat [6, 12]: 80; Plant response rating, Wheat [6, 13]: 20; Plant response rating, Wheat [6, 14]: 60; Barley plant response rating [7]: 20; Plant response rating, Barley ([7]; 16 g ai/ha): 40; Plant response rating, Barley ([7]; 31 g ai/ha): 95; Plant response rating, Barley ([7]; 62 g ai/ha): 95; Chickweed plant response rating [8]: 0; Plant response rating, Chickweed ([8]; 16 g ai/ha, scale 0 to 100): 0; Plant response rating, Chickweed ([8]; 31 g ai/ha, scale 0 to 100): 0; Plant response rating, Chickweed [8, 15]: 0; Windgrass plant response rating ([9]; 8 g ai/ha): 85; Windgrass plant response rating ([9]; 16 g ai/ha): 90; Plant response rating, Windgrass ([9]; 31 g ai/ha, scale 0 to 100): 100; Plant response rating, Windgrass [9, 15]: 100; Canarygrass plant response rating [10]: 80; Plant response rating, Canarygrass ([10]; 16 g ai/ha, scale 0 to 100): 90; Plant response rating, Canarygrass ([10]; 31 g ai/ha, scale 0 to 100): 100; Plant response rating, Canarygrass [10, 15]: 100 |
